Values quoted from earlier work as cited in US12253532B2, “Mass spectrometric quantitation assay for metabolites of leflunomide” (Quest Diagnostics Investments LLC, priority 2010, dated 2025).
Where two headings read alike, the source gives them in different places.

Mean steady state plasma concentration of teriflunomide (patients on daily dosage of 5 mg leflunomide): about 8800 ng/mL
Mean steady state plasma concentration of teriflunomide (patients on daily dosage of 10 mg leflunomide): ~18,000 ng/mL
Mean steady state plasma concentration of teriflunomide (patients on daily dosage of 25 mg leflunomide): ~63,000 ng/mL
SMILES: CC(O)=C(C#N)C(=O)Nc1ccc(C(F)(F)F)cc1 [teriflunomide, 2-cyano-3-hydroxy-N-(4-trifluoromethylphenyl)-2-butenamide]
